From ChEMBL document CHEMBL1201862, “PubChem BioAssay data set” (2004) come the findings set out here.

As usually defined, the IC50 is the concentration that gives 50% inhibition. A word on the EC50: it is the concentration at which the effect is half-maximal. In general, CC50 refers to the concentration at which the toxic effect on the cells reaches its halfway point.

The test system of test [1] is HEK293. Nature of the test: cytotoxicity in HEK293T NF-kB-Luc cells, SAR follow-up, cytotoxicity control for NF-kB activator project, cell-based, resazurin fluorescence (AID 493251). It counts as functional. Conditions: Homo sapiens. Background: The colour change of resazurin is a common sign of viable cells or microbes.
In test [2] the test system is HEK293. Nature of the test: SAR Analysis of small molecule inhibitors of B-cell specific antigen receptor-induced NF-kB activation in a HEK-293T cell line using a luminescence assay - Set 2. [Related pubchem assays (depositor defined):AID435022, AID435025, AID489021]. It counts as functional, cell-based. The settings on record: Homo sapiens.
The subject of test [3] is Jurkat. Nature of the test: SAR Analysis of small molecule inhibitors of […] specific antigen receptor-induced NF-kB activation in a Jurkat cell line using a luminescence assay - Set 3. [Related pubchem assays (depositor defined):AID435022, AID435025, AID465]. It is filed as functional, cell-based. Conditions: Homo sapiens.
Test [4] addresses T1, Endoribonuclease toxin MazF (Escherichia coli K-12, UniProt P0AE70).
T1 sequence (P0AE70 whole entry): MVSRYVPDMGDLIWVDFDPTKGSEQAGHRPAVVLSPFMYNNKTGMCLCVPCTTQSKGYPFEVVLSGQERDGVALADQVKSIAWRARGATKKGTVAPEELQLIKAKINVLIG
The test is described as follows: MazF endoribonuclease activators, SAR follow-up, biochemical, fluorescence, single-stranded RNA substrate (AID 588603). It is filed as functional.

Test [5] deals with T1, Endoribonuclease toxin MazF. Nature of the test: fluorescent RNA oligo signal without MazF, dose response, counter-screen for MazEF activator project, biochemical, fluorescence, single-stranded RNase substrate (AID 588502). It counts as functional. On the technique in general: Counterscreens check selectivity or assay interference.
The target is the same in test [6]. Nature of the test: SAR analysis of small molecule activators of the MazEF TA System via a fluorescence-based single-stranded RNase assay counterscreen. [Related pubchem assays (depositor defined):AID504720, AID504743]. It is filed as functional.
Test [7] deals with MEF. Nature of the test: SAR analysis of small molecule cytotoxicity of MazEF TA System activators in embryonic fibroblast (MEF) cells. [Related pubchem assays (depositor defined):AID504720, AID504743]. It counts as functional. Conditions: Mus musculus.
The target of test [8] is T1, Endoribonuclease toxin MazF. The test is described as follows: MazF toxin RNase activators, dose response, biochemical, fluorescence, single-stranded RNA substrate, uHTS hits (AID 588481). It is filed as functional.
Test [9] has as its target T2, Sentrin-specific protease 8 (Homo sapiens, UniProt Q96LD8).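 Also: luminescence read-out of SENP8 inhibition, dose-response confirmation following an ultra-high-throughput screen.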
T2 sequence (Q96LD8 whole entry): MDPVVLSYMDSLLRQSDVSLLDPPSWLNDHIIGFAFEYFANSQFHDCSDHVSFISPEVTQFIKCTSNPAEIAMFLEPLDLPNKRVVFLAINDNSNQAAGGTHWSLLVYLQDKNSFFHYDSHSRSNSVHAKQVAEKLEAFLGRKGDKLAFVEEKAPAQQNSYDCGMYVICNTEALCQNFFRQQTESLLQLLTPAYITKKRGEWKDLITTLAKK
It is filed as functional.

For test [10], the target named is T3, Sentrin-specific protease 6 (Homo sapiens, UniProt Q9GZR1).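 Also: Luminescence-based dose-response confirmatory assay of SENP6 inhibition, following up an ultra-high-throughput screen.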
T3 sequence (Q9GZR1 whole entry): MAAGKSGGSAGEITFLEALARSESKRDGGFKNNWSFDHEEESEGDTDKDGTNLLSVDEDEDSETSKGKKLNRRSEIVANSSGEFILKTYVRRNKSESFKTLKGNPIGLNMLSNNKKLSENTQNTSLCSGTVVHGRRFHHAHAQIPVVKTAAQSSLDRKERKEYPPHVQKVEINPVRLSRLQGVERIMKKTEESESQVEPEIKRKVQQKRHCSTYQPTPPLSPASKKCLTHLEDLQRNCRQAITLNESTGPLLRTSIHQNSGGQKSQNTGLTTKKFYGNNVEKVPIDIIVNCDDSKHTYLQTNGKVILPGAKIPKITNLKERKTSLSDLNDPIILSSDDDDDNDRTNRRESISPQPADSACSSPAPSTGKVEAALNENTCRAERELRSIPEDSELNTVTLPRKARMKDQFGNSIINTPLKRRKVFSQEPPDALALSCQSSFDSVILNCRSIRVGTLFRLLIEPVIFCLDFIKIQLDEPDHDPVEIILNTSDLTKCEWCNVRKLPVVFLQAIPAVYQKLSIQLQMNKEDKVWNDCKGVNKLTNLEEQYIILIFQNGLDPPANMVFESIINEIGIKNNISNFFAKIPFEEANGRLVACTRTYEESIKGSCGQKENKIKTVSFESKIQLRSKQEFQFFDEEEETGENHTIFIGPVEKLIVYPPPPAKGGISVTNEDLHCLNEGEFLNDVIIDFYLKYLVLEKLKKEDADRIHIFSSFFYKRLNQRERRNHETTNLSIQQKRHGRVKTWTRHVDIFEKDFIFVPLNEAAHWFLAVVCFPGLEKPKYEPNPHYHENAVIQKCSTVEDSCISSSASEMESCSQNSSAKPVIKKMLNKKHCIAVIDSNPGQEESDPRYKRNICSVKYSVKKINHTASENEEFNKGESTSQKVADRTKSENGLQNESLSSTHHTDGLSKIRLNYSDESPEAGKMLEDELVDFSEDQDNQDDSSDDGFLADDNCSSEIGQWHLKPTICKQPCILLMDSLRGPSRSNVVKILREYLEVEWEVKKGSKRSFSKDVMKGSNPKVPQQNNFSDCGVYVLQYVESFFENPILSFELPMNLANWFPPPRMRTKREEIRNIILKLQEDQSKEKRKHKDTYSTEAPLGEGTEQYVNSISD
It counts as functional.

Test [11] concerns the target T4, Sentrin-specific protease 7 (Homo sapiens, UniProt Q9BQF6).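 Also: Luminescence-based dose-response confirmation of ultra-high-throughput screening hits, measuring inhibition of SENP7.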
T4 sequence (Q9BQF6 whole entry): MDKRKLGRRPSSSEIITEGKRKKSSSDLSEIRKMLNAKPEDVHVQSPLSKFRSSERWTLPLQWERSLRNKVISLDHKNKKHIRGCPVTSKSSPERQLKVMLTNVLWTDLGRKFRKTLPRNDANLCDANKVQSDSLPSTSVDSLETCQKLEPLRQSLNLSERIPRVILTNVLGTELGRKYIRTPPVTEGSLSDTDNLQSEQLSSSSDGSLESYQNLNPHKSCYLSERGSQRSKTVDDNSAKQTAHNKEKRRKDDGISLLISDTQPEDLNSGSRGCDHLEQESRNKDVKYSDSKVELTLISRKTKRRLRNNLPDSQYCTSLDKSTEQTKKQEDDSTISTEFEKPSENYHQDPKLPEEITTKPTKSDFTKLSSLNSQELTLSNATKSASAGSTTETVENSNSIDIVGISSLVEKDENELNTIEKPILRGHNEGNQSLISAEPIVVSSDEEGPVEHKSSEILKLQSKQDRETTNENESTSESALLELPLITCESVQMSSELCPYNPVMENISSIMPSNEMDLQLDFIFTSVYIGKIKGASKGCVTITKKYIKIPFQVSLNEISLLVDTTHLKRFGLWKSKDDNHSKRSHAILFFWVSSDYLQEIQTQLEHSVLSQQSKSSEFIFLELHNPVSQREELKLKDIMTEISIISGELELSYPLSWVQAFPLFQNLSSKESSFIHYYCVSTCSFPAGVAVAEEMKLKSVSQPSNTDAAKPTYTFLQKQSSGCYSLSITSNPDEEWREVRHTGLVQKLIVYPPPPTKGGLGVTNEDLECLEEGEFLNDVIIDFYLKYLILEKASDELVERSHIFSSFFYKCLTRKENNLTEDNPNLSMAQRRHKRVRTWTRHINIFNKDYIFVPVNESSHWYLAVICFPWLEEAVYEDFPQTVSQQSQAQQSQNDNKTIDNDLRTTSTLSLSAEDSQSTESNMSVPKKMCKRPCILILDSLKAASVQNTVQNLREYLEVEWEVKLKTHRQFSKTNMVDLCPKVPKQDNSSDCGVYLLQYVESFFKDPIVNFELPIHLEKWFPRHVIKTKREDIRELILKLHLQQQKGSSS
It counts as functional.

The target in test [12] is T5, Caspase-3 (Homo sapiens, UniProt P42574).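 Also: Dose-response selectivity test against caspase-3 for candidate inhibitors of sentrin-specific proteases (SENPs).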
T5 sequence (P42574 whole entry): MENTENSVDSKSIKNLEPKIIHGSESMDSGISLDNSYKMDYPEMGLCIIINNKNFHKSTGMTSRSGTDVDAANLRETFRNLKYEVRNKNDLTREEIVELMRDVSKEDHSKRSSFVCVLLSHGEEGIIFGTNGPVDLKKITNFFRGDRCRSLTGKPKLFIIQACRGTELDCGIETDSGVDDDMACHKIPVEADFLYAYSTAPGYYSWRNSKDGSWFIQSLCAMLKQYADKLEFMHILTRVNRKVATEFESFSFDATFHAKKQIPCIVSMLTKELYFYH
It is filed as functional.

Test [13] has as its target T6, Streptokinase A (Streptococcus pyogenes serotype M1, UniProt P10520).
T6 sequence (P10520 whole entry): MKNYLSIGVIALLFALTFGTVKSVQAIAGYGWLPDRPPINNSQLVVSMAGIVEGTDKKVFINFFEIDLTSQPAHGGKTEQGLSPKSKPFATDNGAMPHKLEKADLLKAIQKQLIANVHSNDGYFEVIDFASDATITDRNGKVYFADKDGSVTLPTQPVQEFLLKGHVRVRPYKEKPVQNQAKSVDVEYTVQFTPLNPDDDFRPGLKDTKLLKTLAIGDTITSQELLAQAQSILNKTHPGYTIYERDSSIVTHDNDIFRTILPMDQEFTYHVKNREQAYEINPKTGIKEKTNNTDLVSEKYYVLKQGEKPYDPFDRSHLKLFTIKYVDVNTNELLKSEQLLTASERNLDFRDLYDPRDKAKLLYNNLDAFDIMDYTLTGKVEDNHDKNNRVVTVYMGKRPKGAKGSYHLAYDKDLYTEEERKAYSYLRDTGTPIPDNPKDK
Nature of the test: S. pyogenes streptokinase expression inhibitors, potency, dose response, plasminogen activation absorbance, OD405 (AID 1914).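 Also: secreted streptokinase activity via plasminogen activation per viability signal from cell pellet.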 It is filed as functional, Streptococcus pyogenes M1 GAS.

Test [14] relates to Streptococcus sp. 'group A'. Nature of the test: growth inhibition of control SK(-) GAS strain, dose response, counter-screen for streptokinase expression inhibitor project, luminescence, kanamycin, BacTiterGlo, confirmation (AID 1900). It is filed as functional, organism-based.
The target in test [15] is Cysteine protease ATG4B (Homo sapiens, UniProt Q9Y4P1). It counts as functional.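 Also: Fluorescence-based dose-response confirmation assay measuring inhibition of ATG4B activity.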
Chain of Cysteine protease ATG4B (Q9Y4P1 whole entry): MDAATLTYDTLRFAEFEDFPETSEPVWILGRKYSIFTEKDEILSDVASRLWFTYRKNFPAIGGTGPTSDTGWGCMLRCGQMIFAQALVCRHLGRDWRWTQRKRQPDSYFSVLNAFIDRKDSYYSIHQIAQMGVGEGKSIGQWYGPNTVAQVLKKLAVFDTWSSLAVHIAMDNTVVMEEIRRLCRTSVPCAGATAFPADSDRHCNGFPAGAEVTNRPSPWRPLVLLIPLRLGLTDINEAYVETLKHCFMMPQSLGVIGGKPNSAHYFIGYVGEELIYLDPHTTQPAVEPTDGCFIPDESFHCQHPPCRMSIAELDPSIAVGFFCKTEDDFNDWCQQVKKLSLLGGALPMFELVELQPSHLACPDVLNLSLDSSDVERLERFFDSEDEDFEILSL
Test [16] concerns Streptococcus. Nature of the test: Group A Streptococcus viability loss, dose response, counter-screen for streptokinase expression inhibitor project, luminescence, BacTiterGlo (AID 1915).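 Also: potency for reduction of bacterial viability or growth.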 It is filed as functional, organism-based.
Test [17] deals with Phospholipase A2 (Homo sapiens, UniProt P04054). It is filed as functional.
Chain of Phospholipase A2 (P04054 whole entry): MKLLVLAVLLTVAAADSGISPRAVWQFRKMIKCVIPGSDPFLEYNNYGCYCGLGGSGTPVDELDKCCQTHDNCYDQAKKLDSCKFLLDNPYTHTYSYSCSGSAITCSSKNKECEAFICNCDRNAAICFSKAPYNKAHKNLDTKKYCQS

Molecules are shown by their SMILES. The source made the active and inactive calls.

With `CCOc1ccc(-c2nc(CSCC(=O)NCc3ccc(C)cc3)c(C)o2)cc1`, the IC50 in test [1] is > 80 µM (inactive); in test [2] it was > 80 µM (inactive); in test [3], 48.9 µM (inactive).
Take `Cc1[nH]c2ccccc2c1/C=C/c1nc2ccccc2c(=O)n1-c1ccc([N+](=O)[O-])cc1`: the EC50 in [4], in [5], in [6] and in test [8] was > 99 µM (inactive) each time. For the same compound, the CC50 in test [7] is > 99 µM (inactive).
On to `CCSc1nnc(NC(=O)c2ccc(C)cc2)s1`, for which the IC50 in test [9] is > 100 µM (inactive); in test [10], > 100 µM (inactive); in test [11], 9.7 µM (active); in test [12] it was 28 µM (active).
`COC(=O)/C=C1\SC(Nc2ccc(Cl)c(Cl)c2)=NC1=O`: the EC50 is 15.4 µM (active) in test [13], 10 µM (active) in test [14] and 16.9 µM (active) in test [16]. In addition, the IC50 is 16.9 µM (active) in test [15] and 11 µM (active) in test [17].
As for `Cc1ccc2[nH]c(-c3ccc(NC(=O)c4ccco4)cc3)nc2c1`, the IC50 in [9] was 30.8 µM (active); in test [10] it was > 100 µM (inactive); in test [11] it was 6.23 µM (active); in [12], 29.6 µM (active).
For `C=CCNC(=O)CCc1nc(-c2ccc(C(C)(C)C)cc2)no1`, the values for the IC50 in test [1], in test [2] and in test [3] were > 80 µM (inactive), 5.3 µM (active) and 25.2 µM (inactive), respectively.
`O=[N+]([O-])c1ccc(S(=O)(=O)N/N=C/c2c[nH]c3ccccc23)cc1`: the results for the EC50 in [4] and in test [6] were 56.8 µM (inactive) and > 99 µM (inactive), respectively. Further, in [7], the CC50 was > 99 µM (inactive).
